Experiment [1] relates to HT-22. The experiment in a line: Neuroprotection against glutamate-induced oxidative stress in mouse HT22 cells assessed as increase in cell viability pretreated with glutamate for 24 hrs followed by compound addition by calcein AM and PI staining based assay. The format is functional.
The subject of experiment [2] is HT-22. The experiment in a line: Neuroprotection against glutamate-induced oxidative stress in mouse HT22 cells assessed as increase in cell viability at 100 uM pretreated with glutamate for 24 hrs followed by compound addition by calcein AM and PI staining based assay. In kind it is functional.
Experiment [3] has as its system HT-22. Description: Neuroprotection against glutamate-induced oxidative stress in mouse HT22 cells assessed as reduction in phosphorylated ERK protein level at 100 uM by Western blot analysis. In kind it is functional, cell-based.
The subject of experiment [4] is HT-22. Description: Neuroprotection against glutamate-induced oxidative stress in mouse HT22 cells assessed as reduction in cellular ROS level by DCFDA staining based FACS analysis. In kind it is functional, cell-based.
Experiment [5] concerns HT-22. The experiment in a line: Neuroprotection against glutamate-induced oxidative stress in mouse HT22 cells assessed as reduction in Ca2+ influx pretreated with glutamate for 8 hrs followed by compound addition by Fluo3-AM staining based fluorescent microscopic method relative to control. In kind it is functional. The arrangement: scale not given: the % may be the effect or the level left.

For experiment [6], the system named is HT-22. The experiment in a line: Neuroprotection against glutamate-induced oxidative stress in mouse HT22 cells assessed as decrease in translocation of AIF to nucleus at 100 uM by Western blot analysis. In kind it is functional, cell-based. In general terms: In western blotting, separated proteins are transferred to a membrane and probed.
Experiment [7] concerns HT-22. Description: Neuroprotection against glutamate-induced oxidative stress in mouse HT22 cells assessed as increase in cell viability by MTT assay. The format is functional, cell-based. (Formazan colour is commonly taken as a measure of viable cells.)
For experiment [8], the system named is HT-22. Description: Neuroprotective activity in mouse HT22 cells assessed as apoptotic or dead cells by annexin V and PI staining based assay (reference value: 2.58%). In kind it is functional.
In experiment [9] the test system is HT-22. The experiment in a line: Neuroprotection against glutamate-induced oxidative stress in mouse HT22 cells assessed as reduction in Ca2+ influx pretreated with glutamate for 8 hrs followed by compound addition by Fluo3-AM staining based fluorescent microscopic method. The format is functional, cell-based.
The subject of experiment [10] is HT-22. The experiment in a line: Neuroprotection against glutamate-induced oxidative stress in mouse HT22 cells assessed as reduction in bax protein level at 100 uM by Western blot analysis. The format is functional, cell-based.
The subject of experiment [11] is HT-22. Description: Neuroprotection against glutamate-induced oxidative stress in mouse HT22 cells assessed as increase in bcl2 protein level at 100 uM by Western blot analysis. In kind it is functional, cell-based.
The subject of experiment [12] is HT-22. The experiment in a line: Neuroprotection against glutamate-induced oxidative stress in mouse HT22 cells assessed as reduction in phosphorylated JNK protein level at 100 uM by Western blot analysis. In kind it is functional, cell-based.
Experiment [13] has as its system HT-22. The experiment in a line: Neuroprotection against glutamate-induced oxidative stress in mouse HT22 cells assessed as reduction in phosphorylated p38 protein level at 100 uM by Western blot analysis. The format is functional, cell-based.
The subject of experiment [14] is HT-22. Description: Neuroprotection against glutamate-induced oxidative stress in mouse HT22 cells assessed as apoptotic or dead cells pretreated with glutamate for 8 hrs followed by compound addition by annexin V and PI staining based assay (reference value: 2.58%). The format is functional.
The subject of experiment [15] is HT-22. Description: Neuroprotection against glutamate-induced oxidative stress in mouse HT22 cells assessed as increase in cell viability at 50 to 100 uM pretreated with glutamate for 24 hrs followed by compound addition by calcein AM and PI staining based assay. In kind it is functional.
Experiment [16] relates to HT-22. Description: Neuroprotection against glutamate-induced oxidative stress in mouse HT22 cells assessed as increase in cell viability at 3 to 6 uM pretreated with glutamate for 24 hrs followed by compound addition by calcein AM and PI staining based assay. In kind it is functional.

The values below come from ChEMBL document CHEMBL4619708, “Synthesis and biological evaluation of isoliquiritigenin derivatives as a neuroprotective agent against glutamate mediated neurotoxicity in HT22 cells” (2020).

Calls of active or inactive are those of the source. No cut-off for these calls is given here.

Consider `O=C(/C=C/c1ccc2ccccc2c1)c1ccc(O)cc1O`, for which the outcome with HT-22 [1] was inactive.

With `O=C(/C=C/c1cccc(O)c1)c1ccc(O)cc1O`, the result in the experiment with HT-22 [1] was inactive.

For the compound `O=C(/C=C/c1ccc(-c2ccccc2)cc1)c1ccc(O)cc1O`, in the experiment on HT-22 [1], the result was inactive.

Regarding `CN(C)c1ccc(/C=C/C(=O)c2ccc(O)cc2O)cc1`, the outcome with HT-22 [2], with HT-22 [3], in the experiment with HT-22 [4], in the experiment with HT-22 [1], in the experiment on HT-22 [6] and in the experiment with HT-22 [7] was Active. The result in the experiment with HT-22 [9], in the experiment on HT-22 [10], in the experiment with HT-22 [11], in the experiment with HT-22 [12] and in the experiment with HT-22 [13] was Active. The Activity in the experiment on HT-22 [5] amounted to 50%; with HT-22 [8], 6.01%; with HT-22 [14] it was 6.4%.

Turning to `COc1cc(/C=C/C(=O)c2ccc(O)cc2O)ccc1O`, in the experiment on HT-22 [1], the outcome was inactive.

For `O=C(/C=C/c1ccc(Cl)cc1)c1ccc(O)cc1O`, in the experiment with HT-22 [1], the result was inactive.

For `COc1ccc(/C=C/C(=O)c2ccc(O)cc2O)cc1OC`, in the experiment on HT-22 [1], the result was inactive.

As to `CC(=O)N[C@@H](CS)C(=O)O`, the result with HT-22 [1] was inactive.

With `COc1cccc(/C=C/C(=O)c2ccc(O)cc2O)c1`, the outcome in the experiment on HT-22 [1] was inactive.

On to `O=C(/C=C/c1ccc2[nH]ccc2c1)c1ccc(O)cc1O`, for which the outcome in the experiment with HT-22 [1] was Active.

For the compound `O=C(/C=C/c1ccc(O)cc1)c1ccc(O)cc1O`, the outcome with HT-22 [1] and in the experiment on HT-22 [15] was inactive.

In the case of `O=C(/C=C/c1ccccc1)c1ccc(O)cc1O`, in the experiment with HT-22 [1], the result was inactive.

`COc1cc(/C=C/C(=O)c2ccc(O)cc2O)cc(OC)c1Br`: the result in the experiment on HT-22 [1] was inactive.

Turning to `O=C(/C=C/c1ccc(C(F)(F)F)cc1)c1ccc(O)cc1O`, in the experiment with HT-22 [1], the result was inactive.

On to `COc1cc(Br)c(/C=C/C(=O)c2ccc(O)cc2O)cc1OC`, for which the result in the experiment with HT-22 [16] was Active. Also, in the experiment on HT-22 [1], the outcome was inactive.

With `COc1cc(/C=C/C(=O)c2ccc(O)cc2O)cc(OC)c1OC`, the result in the experiment on HT-22 [1] was inactive.

With `CCn1c2ccccc2c2cc(/C=C/C(=O)c3ccc(O)cc3O)ccc21`, the result with HT-22 [1] was inactive.

With `O=C(/C=C/c1ccc(O)c(O)c1)c1ccc(O)cc1O`, in the experiment with HT-22 [1], the outcome was inactive.

`COc1ccc(/C=C/C(=O)c2ccc(O)cc2O)cc1`: the result in the experiment with HT-22 [1] was inactive.
